According to patent US12070464B2, “Methods of treating myeloproliferative disorders” (priority 2019, dated 2024):

Experiments:
[1] = tested on: patients with myelofibrosis; assay: Initial human clinical data set, four patients (combination and monotherapy arms); assay type: in vivo
Description: Two myelofibrosis patients to enroll (Patients 245 and 246) received Compound 1 in combination with ruxolitinib and received 18 treatment cycles (11 months of treatment). The other two patients to enroll (Patients 247 and 248) received 10 cycles of Compound 1 as monotherapy (6 months of treatment). […] One of the patients who was transfusion dependent at study entry became transfusion independent (defined as >12 weeks without the need for a red blood cell (RBC) transfusion. Indeed, 7 months had elapsed since their last transfusion.
All four patients experienced an increase in their hemoglobin levels with multiple treatment cycles with Compound 1. In addition, one of the patients who entered the study with uncontrolled thrombocytosis (baseline platelets were 895×10^9/L) experienced a normalization of their platelet counts within the first month of monotherapy treatment with Compound 1. The patient's platelet counts remained normal for more than 20 weeks. This patient's thrombocytosis was also accompanied by severe headaches requiring multiple hospital admission. Following treatment with Compound 1, however, the patient's headaches were resolved. Brief narratives for all four patients treated for at least 6 months are presented below.
At entry into the study with Compound 1, their spleen volume by MRI was 1404 cc and was 12 cm by palpation. The patient presented with early satiety, night sweats, and dyspnea at the start of the study. […] The lowest spleen volume by MRI was 1144 cc, a 19% reduction, at the 6-month MM. The dose of ruxolitinib was reduced on Cycle 10 to 7.5 mg BID to address decreasing platelet count.
When Patient 246 initiated combination treatment with Compound 1 125 mg QD and ruxolitinib 10 mg BID their spleen volume was 607 cc by MRI and 2 cm by palpation and they required regular transfusions (2 units of RBC every 3-4 weeks).
The patient also presented with uncontrolled thrombocytosis at study entry (platelet count of 895×10^9/L at baseline) despite hydroxyurea. In addition, the patient had experienced persistent and debilitating headaches that required multiple hospital admissions for pain control. Their platelets were normalized after receiving their first two weeks of Compound 1 monotherapy (183 x10^9/L) and have remained within the normal range for the remainder of the time they have been on study (see FIG. 6). Within 2 months on Compound 1 monotherapy, the patient's severe headaches had resolved; their night sweats were less frequent; and a 37% reduction in symptoms was assessed by the Myeloproliferative Neoplasm Symptom (MNS) score. Their ECOG performance score decreased from 2 to 1 after two treatment cycles with CPI-0610 and a 25% decrease in spleen volume (640 cc) was assessed by MRI after 8 treatment cycles, the most recent measurement.
Their constitutional symptoms at study entry included fatigue, early satiety, and difficulty concentrating. […] The patient was reinitiated with a reduced Compound 1 dose of 175 mg at the beginning of Cycle 2, which has been tolerated for the remaining time on study (>6 months). While the patient's spleen has shown minimal change through palpation a spleen volume reduction of 11% (1023 cc) was measured by MRI after 3 months on treatment with Compound 1. Their MNS score improved 19% after 2 months on the 175 mg QD dose and after 6 months of Compound 1 treatment their bone marrow fibrosis grade decreased from MF-2 at baseline to MF-1 based on a local pathologist's assessment.

[2] = tested on: patients with refractory or intolerant myelofibrosis no longer on Rux; assay: Phase 2 study, Arm 1 (Compound 1 monotherapy); assay type: in vivo, human; settings: for average spleen volume reduction: 24 weeks, FIG. 13A
Description: A Phase 2 study of Compound 1 in subjects with myelofibrosis (MF) was conducted. Three treatment arms were studied: Arm 1=monotherapy with Compound 1 in patients (pts) who are no longer on Rux and are with refractory, intolerant, or ineligible. In this arm patients were further stratified based on transfusion dependence status [transfusion dependent (TD), defined as an average of >2 units per month over 12 wks, or non-TD cohorts]. Primary endpoint: spleen volume response (SVR) for non-TD cohorts or TD to transfusion independence (TI, no transfusion for consecutive 12 wks) conversion for TD cohorts; secondary endpoints: change in total symptom score (TSS) per […]4.0, patient global impression of change (PGIC), safety and PK; additional endpoints: changes in proinflammatory Ck levels, BM morphology and mutant allele burden. The starting dose of Compound 1 was 125 mg given orally, once daily for 2 weeks on/1 week off in a 21-day dosing cycle. Two separate time points for data analysis occurred for at least Arms 1 and 2 and are discussed below: one at approximately 12 weeks of treatment (first assessment of spleen volume by MRI or CT and every 12 weeks thereafter) and another at approximately 24 weeks of treatment (first assessment of bone marrow biopsy and every 24 weeks thereafter). Patients were added to the study following the first time point. Patients were added to the study following the first data cut and treatment was continued for approximately 25.9 weeks (median, range: 0.4, 116.6).

Compound: Cc1noc2c1-c1ccccc1C(c1ccc(Cl)cc1)=N[C@H]2CC(N)=O [Compound 1, 2-((4S)-6-(4-chlorophenyl)-1-methyl-4H-benzo[c]isoxazolo[4,5-e]azepin-4-yl)acetamide]
- spleen volume reduction ([1]; Patient 245, 6-month MRI, with ruxolitinib): 19%
- lowest spleen volume by MRI ([1]; Patient 245, 6-month MRI, with ruxolitinib, 1404 cc at entry): 1144 cc
- spleen size ([1]; Patient 245, after 4 weeks of therapy with Compound 1 and ruxolitinib, 12 cm before): 5 cm
- spleen by palpation ([1]; Patient 245, within 4 months, Compound 1 125 mg QD and ruxolitinib 15 mg BID, 12 cm at entry): 5 cm
- time to transfusion independence ([1]; Patient 246, Compound 1 125 mg QD titrated to 175 mg QD and ruxolitinib 10 mg BID, TI = >12 weeks without transfusion and hemoglobin >8 g/dL): ≤ 7 months
- reduction in spleen volume ([1]; Patient 246, by Cycle 12, with ruxolitinib): 37%
- spleen volume ([1]; Patient 246, by Cycle 12, with ruxolitinib, 607 cc at start): 380 cc
- most recent hemoglobin measurement ([1]; Patient 246, with ruxolitinib): 10.9 g/dL
- decrease in spleen volume by MRI ([1]; Patient 247, after 8 treatment cycles, monotherapy): 25%
- spleen volume by MRI ([1]; Patient 247, after 8 treatment cycles, monotherapy, 858 cc at entry): 640 cc
- platelets ([1]; Patient 247, after first two weeks of monotherapy, 895×10^9/L at baseline): 1.83e+11 L⁻¹
- ECOG performance score ([1]; Patient 247, after two treatment cycles, from 2, monotherapy): 1
- reduction in symptoms by Myeloproliferative Neoplasm Symptom (MNS) score ([1]; Patient 247, within 2 months, monotherapy): 37%
- time reduced dose has been tolerated ([1]; Patient 248, 175 mg from Cycle 2): > 6 months
- MNS score improvement ([1]; Patient 248, after 2 months on 175 mg QD): 19%
- spleen volume reduction by MRI ([1]; Patient 248, after 3 months, monotherapy): 11%
- spleen volume by MRI ([1]; Patient 248, after 3 months, monotherapy, 1148 cc at entry): 1023 cc
- hemoglobin level after treatment ([1]; from about 8 g/dl, FIG. 5): about 10.9 g/dl
- tolerability of starting dose ([1]; human, in vivo): did not tolerate
- time elapsed since last transfusion ([1]; patient who was transfusion dependent at study entry): 7 months
- time platelet counts remained normal ([1]; patient with uncontrolled thrombocytosis (Patient 247), monotherapy): more than 20 weeks
- hemoglobin level after treatment ([1]; patients 247 and 248, from about 8 g/dL): about 11.5 g/dL
- patients with increase in hemoglobin by 1.5 mg/dL post-baseline ([2]; Time Point 1, monotherapy, 4 of 8): 50%
- average spleen volume reduction ([2]; Time Point 2, TD patients (Cohort 1A)): about −3.2%
- average spleen volume reduction ([2]; Time Point 2, non-TD patients (Cohort 1B)): about −26%
- patients with improved PGIC ([2]; Time Point 2, TD patients): about 50%
- patients with improvement in bone marrow fibrosis ([2]; Time Point 2, TD patients): about 25%
- patients with improved PGIC ([2]; Time Point 2, non-TD patients): 100%
- patients with improvement in disease symptoms per TSS ([2]; Time Point 2, non-TD patients): About 60%
